Laboratory results reported in publication PMC8197855, “Peptide/β-Peptoid Hybrids with Activity against Vancomycin-Resistant Enterococci: Influence of Hydrophobicity and Structural Features on Antibacterial and Hemolytic Properties” (International Journal of Molecular Sciences, 2021).
≈ marks a conversion by molar mass, not a printed value.

Legend:
[1] = test system: E. faecium and E. faecalis isolates; test: MIC summarised over all isolates; assay type: cell-based, Enterococcus faecium and Enterococcus faecalis; details: summary over all isolates
Protocol: (§1) Overnight cultures of the enterococcal isolates were diluted in physiological saline (0.9% NaCl) to reach a turbidity of 0.5 McFarland units (Sensititre® nephelometer and the Sensititre® McFarland Standard). Bacterial suspensions were adjusted to 5 × 10^5 CFU/mL in MHB II or BHI broth containing two-fold dilutions of peptidomimetics or conventional antibiotics in a final volume of 100 µL. The plates were incubated for 24 h at 37 °C without shaking. […] All experiments were performed in three biological replicates.

[2] = test system: E. faecalis ATCC 29212; test: Time-kill kinetics; assay type: cell-based, Enterococcus faecalis; details: for Reduction in viable bacteria (time-kill): 4× MIC (compound 2: 8 µg/mL, 2–4× MIC), 5 h exposure, BHI broth
Protocol: Time–kill kinetics were established for compounds 2, 5 and 10 in E. faecium ATCC 19434 and E. faecalis ATCC 29212. Prior to the experiments, the isolates were incubated on BHI agar supplemented with 5% calf blood at 37 °C overnight (ON). For each of the strains 1-2 colonies were transferred into 4 mL BHI broth and incubated ON at 37 °C with shaking (180 rpm). OD600 was measured, and then cultures were diluted with BHI broth to an OD600 of 0.05 and grown for approximately 2 h to reach the exponential phase.
One untreated control per strain was prepared. The inoculum was quantified by plating and subsequently enumerated. The initial inocula were approximately 10^7 CFU/mL. Two controls were included, both without bacteria and one including the respective compound without bacteria. All tubes were incubated at 37 °C with shaking (180 rpm). Samples of 100 µL were taken after 1 h, 3 h and 5 h of exposure. Appropriate dilutions were spread onto BHI agar plates and incubated at 37 °C overnight, and then colonies were enumerated. Plates were incubated for 24 h and 48 h, and then checked for the appearance of slow-growing colonies. The experiments were performed with at least three biological replicates for each condition and time point.

[3] = test system: E. faecium ATCC 19434; test: microbe, parasite or virus in culture; assay type: cell-based, Enterococcus faecium; details: ATCC 19434, 24 h
[4] = Hemolytic activity; assay type: cell-based, human; details: human, human red blood cells (washed, 1% suspension), 37 °C, 1% red blood cell suspension
In short: (§2)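 Washed cells (1% suspension) incubated with compound at final 400 μg/mL, 60 min at 37 °C with mild agitation, triplicate wells. Released hemoglobin read at OD405 in supernatant; percent hemolysis normalised to 1% SDS (100%) and PBS (0%).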

[5] = test system: HepG2 cell line ATCC HB-8065; test: Effect on HepG2 cell viability (MTT assay); assay type: cell-based, human; details: 48 h
In short: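 HepG2 cells at 5000/well, pre-cultured 24 h, then exposed 48 h at 37 °C to serial dilutions over 10–1280 μg/mL. Viability was read by MTT (0.2 mg/mL, 3 h, A540 after DMSO solubilization) relative to untreated control, and IC50 was fitted.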

[6] = test system: E. faecalis ATCC 29212; test: microbe, parasite or virus in culture; assay type: cell-based, Enterococcus faecalis; details: ATCC 29212, 24 h
[7] = test system: E. faecalis isolates; assay type: cell-based, Enterococcus faecalis; details: 24 h
Protocol: as §1

[8] = test system: human red blood cells; test: Hemolytic activity; assay type: cell-based; details: 60 min, 37 °C, 1% red blood cell suspension
In short: as §2

[9] = test system: E. faecium isolates; assay type: cell-based, Enterococcus faecium; details: 24 h
Protocol: as §1

[10] = test system: E. faecium ATCC 19434; test: Broth checkerboard assay with conventional antibiotics; assay type: cell-based, Enterococcus faecium
Protocol: The strain culture preparation and final volume were the same as in the MIC assay. […] The plates were incubated for 24 h at 37 °C without shaking. […] All experiments were performed in two biological replicates.
To evaluate the effect of the combinations, the fractional inhibitory concentration index (FICI) was calculated for each combination according to:ΣFIC = FICA + FICB = (CA/MICA) + (CB/MICB)
The drug interaction was scored as follows: synergy—FICI ≤ 0.5; no interaction—FICI > 0.5–4; antagonism—FICI > 4 [40].

| SMILES | MIC (range) against all E. faecium and E. faecalis isolates [1] [µg/mL] | Reduction in viable bacteria (time-kill) [2] | Minimum inhibitory concentration [3] [µg/mL] | hemolysis at 60 min, 400 µg/mL [4] [%] | HepG2 IC50 [5] [µg/mL] | Minimum inhibitory concentration [6] [µg/mL] | MIC (range) against E. faecalis [7] [µg/mL] | Reduction in viable cell counts within 1 h ([2]; 4× MIC, within 1 h of exposure) | Hemolysis (at 400 µg/mL) [8] [%] | MIC (range or typical value) against E. faecium [9] [µg/mL] | Effect on the MIC of rifampicin ([10]; compound supplemented at 0.25× MIC) | Reduction in the MIC of rifampicin ([10]; compound supplemented at 0.5× MIC) |
| --- | --- | --- | --- | --- | --- | --- | --- | --- | --- | --- | --- | --- |
| CC(=O)N[C@@H](CCCCNC(=N)N)C(=O)N(CCC(=O)N[C@@H](CCCCNC(=N)N)C(=O)N(CCC(=O)N[C@@H](CCCCNC(=N)N)C(=O)N(CCC(=O)N[C@@H](CCCCNC(=N)N)C(=O)N(CCC(=O)N[C@@H](CCCCNC(=N)N)C(=O)N(CCC(=O)N[C@@H](CCCCNC(=N)N)C(=O)N(CCC(N)=O)[C@@H](C)C1CCCCC1)[C@@H](C)C1CCCCC1)[C@@H](C)C1CCCCC1)[C@@H](C)C1CCCCC1)[C@@H](C)C1CCCCC1)[C@@H](C)C1CCCCC1 [Compound 2, Ac-[hArg-βNsce]6-NH2] | 2 to 4 | approximately 2 log | 2 (≈ 0.922 µM) | 98.4 | 15 | 2 to 4 | – | – | – | – | – | – |
| CC(=O)N[C@@H](CCCCNC(=N)N)C(=O)N(CCC(=O)N[C@@H](CCCCN)C(=O)N(CCC(=O)N[C@@H](CCCCNC(=N)N)C(=O)N(CCC(=O)N[C@@H](CCCCN)C(=O)N(CCC(=O)N[C@@H](CCCCNC(=N)N)C(=O)N(CCC(=O)N[C@@H](CCCCN)C(=O)N(CCC(N)=O)[C@@H](C)c1ccccc1)[C@@H](C)C1CCCCC1)[C@@H](C)c1ccccc1)[C@@H](C)C1CCCCC1)[C@@H](C)c1ccccc1)[C@@H](C)C1CCCCC1 [Compound 5, Ac-[hArg-βNsce-Lys-βNspe]3-NH2] | – | 3 log | 4 (≈ 1.98 µM) | < 10 | 73 | 4 to 8 | 4 to 16 | no reduction in viable cell counts | 9.4 | – | – | – |
| CCCCCCCC(=O)N[C@@H](CCCCN)C(=O)N(CCC(=O)N[C@@H](CCCCN)C(=O)N(CCC(=O)N[C@@H](CCCCN)C(=O)N(CCC(=O)N[C@@H](CCCCN)C(=O)N(CCC(=O)N[C@@H](CCCCN)C(=O)N(CCC(=O)N[C@@H](CCCCN)C(=O)N(CCC(N)=O)[C@@H](C)c1ccccc1)[C@@H](C)c1ccccc1)[C@@H](C)c1ccccc1)[C@@H](C)c1ccccc1)[C@@H](C)c1ccccc1)[C@@H](C)c1ccccc1 [Compound 10, Oct-[Lys-βNspe]6-NH2] | – | 5 log | 8 (≈ 4.07 µM) | < 10 | 41 | 8 to 16 | 4 to 16 | – | 6.9 | 2 to 8 | no effect | 4–8 fold |
